Toxic doses and inconclusive results are not listed. Rule as the data show it: active = T/C of 150% or more; inactive = T/C below 125%.
Test system: L1210 leukemia ip in BDF1 mice, survival T/C
Assay: NCI In Vivo Anticancer Drug Screen. Data for tumor model L1210 Leukemia (intraperitoneal) in B6D2F1 (BDF1) mice
Conditions: endpoint: mean survival time, higher = longer survival
Outline: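 Ratio derived from survival: compound-dosed mice over vehicle-dosed mice, all bearing a transplantable tumor.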

[1] = dose: 100.0 mg/kg/injection, schedule: Q01DX009 (ip), vehicle: saline with Tween-80
[2] = dose: 100.0 mg/kg/injection, schedule: Q04DX003 (ip), vehicle: saline with Tween-80
[3] = dose: 200.0 mg/kg/injection, schedule: Q01DX009 (ip), vehicle: saline with Tween-80
[4] = dose: 200.0 mg/kg/injection, schedule: Q04DX003 (ip), vehicle: saline with Tween-80
[5] = dose: 400.0 mg/kg/injection, schedule: Q01DX009 (ip), vehicle: saline with Tween-80
[6] = dose: 400.0 mg/kg/injection, schedule: Q04DX003 (ip), vehicle: saline with Tween-80
[7] = dose: 50.0 mg/kg/injection, schedule: Q01DX009 (ip), vehicle: saline with Tween-80
[8] = dose: 50.0 mg/kg/injection, schedule: Q04DX003 (ip), vehicle: saline with Tween-80
[9] = dose: 100.0 mg/kg/injection, schedule: Q01DX009 (ip), vehicle: saline
[10] = dose: 100.0 mg/kg/injection, schedule: Q04DX003 (ip), vehicle: saline
[11] = dose: 200.0 mg/kg/injection, schedule: Q01DX009 (ip), vehicle: saline
[12] = dose: 200.0 mg/kg/injection, schedule: Q04DX003 (ip), vehicle: saline
[13] = dose: 400.0 mg/kg/injection, schedule: Q01DX009 (ip), vehicle: saline
[14] = dose: 400.0 mg/kg/injection, schedule: Q04DX003 (ip), vehicle: saline
[15] = dose: 25.0 mg/kg/injection, schedule: Q01DX009 (ip), vehicle: saline with Tween-80
[16] = dose: 100.0 mg/kg/injection, schedule: Q04DX003 (ip), vehicle: Klucel (hydroxypropylcellulose) (HPC)
[17] = dose: 200.0 mg/kg/injection, schedule: Q04DX003 (ip), vehicle: Klucel (hydroxypropylcellulose) (HPC)
[18] = dose: 400.0 mg/kg/injection, schedule: Q04DX003 (ip), vehicle: Klucel (hydroxypropylcellulose) (HPC)
[19] = dose: 100.0 mg/kg/injection, schedule: Q01DX009 (ip), vehicle: Klucel (hydroxypropylcellulose) (HPC)
[20] = dose: 200.0 mg/kg/injection, schedule: Q01DX009 (ip), vehicle: Klucel (hydroxypropylcellulose) (HPC)
[21] = dose: 400.0 mg/kg/injection, schedule: Q01DX009 (ip), vehicle: Klucel (hydroxypropylcellulose) (HPC)
[22] = dose: 25.0 mg/kg/injection, schedule: Q04DX003 (ip), vehicle: saline
[23] = dose: 50.0 mg/kg/injection, schedule: Q04DX003 (ip), vehicle: saline

Measured: T/C

NC(=S)N/N=C/c1cc2c(cc1Br)OCO2
inactive: dose: 50.0 mg/kg/injection, schedule: Q01DX001 (ip), vehicle: alcohol 93 % of control | dose: 100.0 mg/kg/injection, schedule: Q01DX001 (ip), vehicle: alcohol 122 % of control | dose: 200.0 mg/kg/injection, schedule: Q01DX001 (ip), vehicle: alcohol 112 % of control | dose: 400.0 mg/kg/injection, schedule: Q01DX001 (ip), vehicle: alcohol 104 % of control

Cc1cc(N(CCCOS(C)(=O)=O)CCCOS(C)(=O)=O)ccc1C=Nc1cc(Br)c(O)c(Br)c1
inactive: [1] 94 % of control | [2] 92 % of control | [3] 94 % of control | [4] 90 % of control | [5] 89 % of control | [6] 94 % of control

NCCCCCCN=C(N)C(N)=NCCCCCCN
inactive: dose: 1.5 mg/kg/injection, schedule: Q01DX009 (ip), vehicle: Klucel (hydroxypropylcellulose) (HPC) 96 % of control | dose: 3.0 mg/kg/injection, schedule: Q01DX009 (ip), vehicle: Klucel (hydroxypropylcellulose) (HPC) 112 % of control | dose: 6.0 mg/kg/injection, schedule: Q01DX009 (ip), vehicle: Klucel (hydroxypropylcellulose) (HPC) 102 % of control | dose: 12.5 mg/kg/injection, schedule: Q04DX003 (ip), vehicle: Klucel (hydroxypropylcellulose) (HPC) 93 % of control | dose: 25.0 mg/kg/injection, schedule: Q04DX003 (ip), vehicle: Klucel (hydroxypropylcellulose) (HPC) 93 % of control

Cc1csc(N)c1C(N)=O
inactive: [7] 97 % of control | [8] 97 % of control | [1] 103 % of control | [9] 112 % of control | [2] 92 % of control | [10] 117 % of control | [3] 102 % of control | [11] 100 % of control | [4] 97 % of control | [12] 116 % of control | [5] 103 % of control | [13] 109 % of control | [6] 102 % of control | [14] 115 % of control

CCCCCC(C)N (stereo unspecified)
inactive: dose: 5.0 mg/kg/injection, schedule: Q01DX001 (ip), vehicle: saline 101 % of control | dose: 10.0 mg/kg/injection, schedule: Q01DX001 (ip), vehicle: saline 101 % of control | dose: 20.0 mg/kg/injection, schedule: Q01DX001 (ip), vehicle: saline 95 % of control | dose: 40.0 mg/kg/injection, schedule: Q01DX001 (ip), vehicle: saline 103 % of control | dose: 80.0 mg/kg/injection, schedule: Q01DX001 (ip), vehicle: saline 101 % of control

Cc1ccc(C)c2c3c(sc12)CCCC3
inactive: dose: 100.0 mg/kg/injection, schedule: Q01DX001 (ip), vehicle: carboxymethylcellulose (CMC) 95 % of control | dose: 200.0 mg/kg/injection, schedule: Q01DX001 (ip), vehicle: carboxymethylcellulose (CMC) 90 % of control | dose: 400.0 mg/kg/injection, schedule: Q01DX001 (ip), vehicle: carboxymethylcellulose (CMC) 101 % of control

c1ccc([CH2][Pb]([c]2ccccc2)([c]2ccccc2)[c]2ccccc2)cc1
inactive: [15] 93 % of control | [7] 94 % of control | [1] 96 % of control | dose: 200.0 mg/kg/injection, schedule: Q01DX001 (ip), vehicle: saline with Tween-80 108 % of control | dose: 400.0 mg/kg/injection, schedule: Q01DX001 (ip), vehicle: saline with Tween-80 97 % of control

O=[N+]([O-])CC(O)C(F)(F)C(F)(F)C(F)(F)F (stereo unspecified)
inactive: [16] 105 % of control | [17] 100 % of control | [18] 100 % of control

O=C(/C=C/c1ccco1)c1ccc(Cl)cc1
inactive: dose: 100.0 mg/kg/injection, schedule: Q01DX009 (ip), vehicle: saline sonified 91 % of control | dose: 200.0 mg/kg/injection, schedule: Q01DX009 (ip), vehicle: saline sonified 104 % of control | dose: 400.0 mg/kg/injection, schedule: Q01DX009 (ip), vehicle: saline sonified 94 % of control

CCOC(=O)/C(C#N)=C\C=C\c1ccccc1
inactive: [19] 92 % of control | [16] 96 % of control | [20] 98 % of control | [17] 98 % of control | [18] 102 % of control

c1ccc(-c2nc[nH]c2-c2ccccc2)cc1
inactive: [19] 96 % of control | [16] 105 % of control | [20] 91 % of control | [17] 100 % of control | [21] 96 % of control | [18] 100 % of control

Cc1cc(C)c(NC(=S)NC(=O)c2cccc3ccccc23)c(C)c1
inactive: [19] 98 % of control | [16] 103 % of control | [20] 106 % of control | [17] 97 % of control | [21] 95 % of control | [18] 103 % of control

O=C(Nc1ccccc1C1=NCCN1)c1ccc(C(=O)Nc2ccccc2C2=NCCN2)cc1
inactive: dose: 15.0 mg/kg/injection, schedule: Q01DX Z (ip), vehicle: methylcellulose (MC) 88 % of control | dose: 30.0 mg/kg/injection, schedule: Q01DX Z (ip), vehicle: methylcellulose (MC) 95 % of control | dose: 62.0 mg/kg/injection, schedule: Q01DX Z (ip), vehicle: carboxymethylcellulose (CMC) 92 % of control | dose: 125.0 mg/kg/injection, schedule: Q01DX Z (ip), vehicle: carboxymethylcellulose (CMC) 94 % of control | dose: 250.0 mg/kg/injection, schedule: Q01DX Z (ip), vehicle: carboxymethylcellulose (CMC) 88 % of control

COc1ccc(/C=C/C(=O)c2ccc(OC)c(OC)c2)cc1O
inactive: [9] 96 % of control | [10] 95 % of control | [11] 120 % of control | [12] 98 % of control | [13] 91 % of control | [14] 95 % of control

CCCCCCCCCOCCOCCOCCN
inactive: dose: 12.0 mg/kg/injection, schedule: Q01DX009 (ip), vehicle: Klucel (hydroxypropylcellulose) (HPC) 99 % of control | dose: 25.0 mg/kg/injection, schedule: Q01DX009 (ip), vehicle: Klucel (hydroxypropylcellulose) (HPC) 100 % of control | [22] 102 % of control | dose: 50.0 mg/kg/injection, schedule: Q01DX009 (ip), vehicle: Klucel (hydroxypropylcellulose) (HPC) 100 % of control | [23] 96 % of control | [10] 86 % of control

CN(C(=O)CCC(=O)N(C)c1ccccc1)c1ccccc1
inactive: [1] 97 % of control | [3] 87 % of control

CCCCCCCCCCCC1=NCCN1
inactive: dose: 6.25 mg/kg/injection, schedule: Q01DX009 (ip), vehicle: saline 91 % of control | dose: 12.5 mg/kg/injection, schedule: Q01DX009 (ip), vehicle: saline 91 % of control | dose: 12.5 mg/kg/injection, schedule: Q04DX003 (ip), vehicle: saline 89 % of control | [15] 93 % of control | dose: 25.0 mg/kg/injection, schedule: Q01DX009 (ip), vehicle: saline 93 % of control | dose: 25.0 mg/kg/injection, schedule: Q04DX003 (ip), vehicle: saline with Tween-80 97 % of control | [22] 94 % of control | dose: 50.0 mg/kg/injection, schedule: Q01DX009 (ip), vehicle: saline 91 % of control | [8] 97 % of control | [23] 94 % of control | [19] 100 % of control | [2] 100 % of control | [20] 96 % of control | [21] 88 % of control

C#CC(O)(c1ccccc1)c1ccccc1
inactive: dose: 100.0 mg/kg/injection, schedule: Q01DX001 (ip), vehicle: saline 103 % of control | dose: 200.0 mg/kg/injection, schedule: Q01DX001 (ip), vehicle: saline 107 % of control | dose: 400.0 mg/kg/injection, schedule: Q01DX001 (ip), vehicle: saline 100 % of control

NC1CCCCCCCC1
inactive: dose: 75.0 mg/kg/injection, schedule: Q01DX001 (ip), vehicle: acetone 95 % of control | dose: 150.0 mg/kg/injection, schedule: Q01DX001 (ip), vehicle: acetone 98 % of control

N#CC(C#N)=Cc1cccc(OCc2ccccc2)c1
inactive: [19] 100 % of control | [20] 91 % of control | [21] 91 % of control
